The source of these data is US20180305370A1 (ORPHOMED, INC., priority 2015, published 2018).

Where two headings read alike, the source gives them in different places.

For data set [1], the target named is ORL-1 (Homo sapiens, UniProt P41146). As to conditions: cited from earlier work.
For data set [2] the following is noted: in vivo; cited from earlier work.
The conditions of data set [3]: cited from earlier work.
For data set [4], the system named is human liver microsomes. Description: Metabolic stability in human liver microsomes. As to conditions: 1 μM, human liver microsomes 1 mg protein/mL, up to 120 min, FIG. 1.
The test system of data set [5] is formalin-induced hind paw licking. As to the kind of experiment: Analgesia, formalin paw mouse study (hind paw licking time).
The conditions of data set [6]: for stability over time: 28 months, room temperature.
Data set [7] is described as follows: In vivo pharmacokinetic study, IV and oral gavage.
Procedure: The animal pharmacokinetic studies were conducted at Johns Hopkins Medical Institute using CD-1 mice (weighing about 35 gm, n=3 per time point). […] Blood collected at 0, 30 min and 1, 2, 6 and 24 hours post-dose. Blood samples for the drug were analyzed after harvesting the plasma and by LC/MS/MS as follows:
Extracts were centrifuged at 16000×g at 4° C. for 5 minutes. Supernatants (250 μL) were transferred to a new tube and dried under N2 at 45° C. for 1 hour. Samples were reconstituted with 100 μL of 30% acetonitrile, vortexed and centrifuged. Supernatants (90 μL) were transferred to LC vials and 10 μL was injected on LC/MS.

Sequence of ORL-1 (P41146 whole entry, species assumed): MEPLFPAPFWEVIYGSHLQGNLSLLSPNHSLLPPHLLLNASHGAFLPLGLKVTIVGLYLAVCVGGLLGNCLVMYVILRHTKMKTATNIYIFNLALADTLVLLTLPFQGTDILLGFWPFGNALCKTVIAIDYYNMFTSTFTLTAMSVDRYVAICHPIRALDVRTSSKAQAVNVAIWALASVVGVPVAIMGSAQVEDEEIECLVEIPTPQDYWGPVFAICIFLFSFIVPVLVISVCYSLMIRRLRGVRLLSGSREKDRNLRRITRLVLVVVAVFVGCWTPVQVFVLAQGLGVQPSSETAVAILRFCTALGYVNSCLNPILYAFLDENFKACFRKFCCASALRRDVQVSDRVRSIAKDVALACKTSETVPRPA

For the compound `CO[C@]12CC[C@@]3(C[C@@H]1[C@](C)(O)C(C)(C)C)[C@H]1Cc4ccc(O)c5c4[C@@]3(CCN1CC1CC1)[C@H]2O5` [Buprenorphine, buprenorphine], the Activity entry in data set [1] was “Agonist”. The “analgesic potency compared with morphine” value in data set [2] is “about thirty times more potent”. In addition, in data set [3], the “absolute bioavailability after an oral dose” value was “less than 10%”.
Take “2-[(2S)-2-[(5R,6R,7R,14S)-9α-cyclopropylmethyl-4,5-epoxy-6,14-ethano-3-hydroxy-6-methoxymorphinan-7-yl]-3,3-dimethylbutan-2-ol]-ethanol [EGE buprenorphine hydrochloride]”: the “metabolism in presence of microsomal enzymes” value in data set [4] was “rapid metabolism”. Moreover, the analgesic effect result in data set [5] (5 mg/kg IP, mice, FIG. 9) was “rapid analgesic effect”. The “activity, less than morphine” value in data set [5] (animal studies versus morphine (Example 7)) is “about 2.5%”. The values for the stability over time result in data set [6] (listed as EGE conjugate) and in data set [6] (listed as compound of the invention) were “unchanged over time” and “significantly more stable”, respectively. In addition, the “HPLC Purity, September 2015” value in data set [6] (hydrochloride salt, after 28 months at room temperature in clear glass vials) is 98.7% (AUC). Moreover, in data set [6] (hydrochloride salt, immediately after synthesis, stability baseline), the “HPLC Purity, May 2013” value is reported as 98.6% (AUC). In data set [7] (CD-1 mice, 10 mg/kg oral gavage vs IV, FIG. 6), the “absolute bioavailability (ratio of area under the concentration curve after oral and IV dose)” value is on record as “about 40%”. Besides, the “bioavailability, less than morphine” value in data set [7] (animal studies versus morphine) is “about 40%”.
